Results: US20240165196A1, “Beta-Lactamase Inhibitors” (VIB VZW, priority 2021, published 2024)

Experiments:
[1] = tested on: 16 additional E. coli clinical isolates containing TEM or SHV enzymes; assay: MIC of ampicillin with fixed 30 μg/ml TEM3.2, isolate panel summary; type: cell-based; conditions: 14 out of 16 isolates
Procedure: Moreover, the core sequence of peptide TEM3.0 also occurs in the structurally related SHV β-lactamase (FIG. 2E). Although the C-terminal extension residues H and N have been replaced with physicochemically similar R and Q, respectively (FIG. 2H). […] To quantify the synergy between these four peptides and penicillin G, we performed a so-called checkerboard assay, which allows to compare the activity of two test compounds co-incubated (here peptide and a beta-lactam antibiotic), to their individual activities in isolation. The result from the assay is quantified as the Fractional Inhibitory Concentration Index (FICI), and it is generally accepted that values below 0.5 indicate synergistic effects between the compounds. […] We evaluated the synergy of the peptides with penicillin G in clinical E. coli isolates carrying the TEM (FIG. 2I) or SHV enzymes (FIG. 2J). […]
Determination of MIC values using the broth microdilution in the 96-well plate (BD Biosciences, Belgium) according to the EUCAST guideline, which was performed in 96-well polystyrene flat bottom microtiter plates (BD Biosciences). […] OD was measured at 590 nm a multipurpose ultraviolet-visible plate reader, and the absorbance of the growth bacteria was measured using absorbance reader. Bacterial growth was also visually inspected and agreed well with the OD reading.

[2] = tested on: uro-pathogenic E. coli strain (UPEC strain blaTEM-1); assay: MIC of ampicillin on the uro-pathogenic strain; type: cell-based; conditions: 32 μg/ml of TEM3.2 or tazobactam
Procedure: Vehicle alone (0.9% NaCl) was also administered (IV).
Determination of MIC values using the broth microdilution in the 96-well plate (BD Biosciences, Belgium) according to the EUCAST guideline, which was performed in 96-well polystyrene flat bottom microtiter plates (BD Biosciences). Briefly, a single colony was inoculated into 5 mL Difco™ Mueller Hinton Broth (BD Biosciences Ref 275730) and grown to the end-exponential growth phase in a shaking incubator at 37° C. Cultures were subsequently diluted to an MacFarland (0.5 optical density) then the culture was diluted to reach 10^6 CFU/mL in fresh MHB medium. 50 μl of different concentration of peptides ranging from 128 to 2 μg/mL were serially diluted to the sterile 96-well plate in MHB. 50 μL of the diluted bacteria in MHB were pipetted into 96-well plates to reach the final volume of 100 μL. The bacteria grown with the maximum concentration of carrier and medium were considered as positive and negative controls, respectively. The plates were statically incubated overnight at 37° C. to allow bacterial growth. OD was measured at 590 nm a multipurpose ultraviolet-visible plate reader, and the absorbance of the growth bacteria was measured using absorbance reader. Bacterial growth was also visually inspected and agreed well with the OD reading.

Ac-RLTAFLHNRRPRLTAFLRQRR-NH2 [TEM3.2]
clinical isolates sensitized to ampicillin [1]: 87% | MIC Ampicillin in the presence of additive [2]: 25 µg/mL
